Measured values as given in US10398751B2, “Pharmaceutical compositions of water soluble peptides with poor solubility in isotonic conditions and methods for their use” (STRONGBRIDGE IRELAND LIMITED, priority 2016, dated 2019).
Counter-ions that a name gives are not always drawn. Like-named read-outs stand apart in the source and are kept apart here.

Assay: Solubility screening of veldoreotide acetate (10 mg, incremental volumes of medium, USP definition)
Format: physicochemical
Source text: The solubility of veldoreotide acetate in aqueous media was screened by the following method. A fixed amount of 10 milligrams of the peptide was weighed and dissolved at ambient temperature by increased (incremental) volumes of the tested medium until a complete solubility was observed, i.e, clear/transparent solution and absence of any precipitates (the solubility endpoint values were defined according to USP guidance). Following the results of the screening studies, several media were selected for verification studies based on quantitative assessment of the peptide concentration by HPLC (maximal solubility). The results of the screening study are depicted in Table 1 while the results of the verification studies are included in Table 2.

Results USP Definition (10 mg in 0.1% TFA): Freely soluble
Results USP Definition (10 mg in 0.1N HCL, acetate salt): Soluble
Results USP Definition (10 mg in 0.1N HCL, listed as veldoreotide acetate, acetate salt): soluble
Results USP Definition (10 mg in 0.9N HCL, acetate salt): Insoluble
Results USP Definition (10 mg in 0.9N HCL, listed as veldoreotide acetate, acetate salt): insoluble
Results USP Definition (10 mg in 2% Propylene glycol in olive oil (or cottonseed oil)): Sparingly
Results USP Definition (10 mg in 10% EtOH (95%) in olive oil (or cottonseed oil)): Sparingly
Results USP Definition (10 mg in Acetate saline 100 mM, Mannitol 250 mM (pH 4.3)): Slightly soluble
Results USP Definition (10 mg in Acetic acid 1% (glacial)): Freely soluble
Results USP Definition (10 mg in Acetone (USP)): Freely soluble
Results USP Definition (10 mg in Caprylic acid): Soluble
Results USP Definition (10 mg in DDW (Double distilled water)): Freely soluble
Results USP Definition (10 mg in Dextrose 5% (USP)): Freely soluble
Results USP Definition (10 mg in Ethanol (USP)): Freely soluble
Results USP Definition (10 mg in Glycerol): Soluble
Results USP Definition (10 mg in Lactic acid 37 mM, Mannitol 250 mM (pH 4.3)): Freely soluble
Results USP Definition (10 mg in Oleic acid): Very slightly
Results USP Definition (10 mg in PBS pH 7.2): Very slightly
Results USP Definition (10 mg in Propylene glycol): Freely soluble
Results USP Definition (10 mg in Refined vegetable oils, Olive, Cotton, Coconut, Canola): Insoluble
Results USP Definition (10 mg in Saline (USP) (0.9% NaCl) pH 4.5): Very slightly
Results USP Definition (10 mg in WFI-USP (water for injection)): Soluble
solubility (0.1% TFA, 10 mg in 0.1% TFA, read-out: 0.01 ml Very soluble (1 g/ml)): < 1000 mg/mL
solubility (0.1% TFA, 10 mg in 0.1% TFA, read-out: 0.5 ml Soluble (0.02 g/ml; 20 mg/ml)): > 20 mg/mL
solubility (0.1% TFA, 10 mg in 0.1% TFA, read-out: 1 ml Sparingly soluble (0.01 g/ml; 10 mg/ml)): > 10 mg/mL
solubility (0.1% TFA, 0.1 ml Freely soluble (0.1 g/ml), 10 mg in 0.1% TFA): > 100 mg/mL
solubility (0.1% TFA, 10 ml Slightly soluble (0.001 g/ml; 1 mg/ml), 10 mg in 0.1% TFA): > 1 mg/mL
solubility (0.1N HCl, 10 mg in 0.1N HCL, read-out: 0.01 ml Very soluble (1 g/ml)): < 1000 mg/mL
solubility (0.1N HCl, 10 mg in 0.1N HCL, read-out: 0.5 ml Soluble (0.02 g/ml; 20 mg/ml)): > 20 mg/mL
solubility (0.1N HCl, 10 mg in 0.1N HCL, read-out: 1 ml Sparingly soluble (0.01 g/ml; 10 mg/ml)): > 10 mg/mL
solubility (0.1N HCl, 0.1 ml Freely soluble (0.1 g/ml), 10 mg in 0.1N HCL): > 100 mg/mL
solubility (0.1N HCl, 10 ml Slightly soluble (0.001 g/ml; 1 mg/ml), 10 mg in 0.1N HCL): > 1 mg/mL
solubility (0.9N HCl, 10 mg in 0.9N HCL, read-out: 0.01 ml Very soluble (1 g/ml)): < 1000 mg/mL
solubility (0.9N HCl, 10 mg in 0.9N HCL, read-out: 0.5 ml Soluble (0.02 g/ml; 20 mg/ml)): < 20 mg/mL
solubility (0.9N HCl, 10 mg in 0.9N HCL, read-out: 1 ml Sparingly soluble (0.01 g/ml; 10 mg/ml)): < 10 mg/mL
solubility (0.9N HCl, 0.1 ml Freely soluble (0.1 g/ml), 10 mg in 0.9N HCL): < 100 mg/mL
solubility (0.9N HCl, 10 ml Slightly soluble (0.001 g/ml; 1 mg/ml), 10 mg in 0.9N HCL): < 1 mg/mL
solubility (2% propylene glycol in olive oil (or cottonseed oil), 10 mg in 2% Propylene glycol in olive oil (or cottonseed oil), read-out: 0.01 ml Very soluble (1 g/ml)): < 1000 mg/mL
solubility (2% propylene glycol in olive oil (or cottonseed oil), 10 mg in 2% Propylene glycol in olive oil (or cottonseed oil), read-out: 0.5 ml Soluble (0.02 g/ml; 20 mg/ml)): < 20 mg/mL
solubility (2% propylene glycol in olive oil (or cottonseed oil), 10 mg in 2% Propylene glycol in olive oil (or cottonseed oil), read-out: 1 ml Sparingly soluble (0.01 g/ml; 10 mg/ml)): > 10 mg/mL
solubility (2% propylene glycol in olive oil (or cottonseed oil), 0.1 ml Freely soluble (0.1 g/ml), 10 mg in 2% Propylene glycol in olive oil (or cottonseed oil)): < 100 mg/mL
solubility (2% propylene glycol in olive oil (or cottonseed oil), 10 ml Slightly soluble (0.001 g/ml; 1 mg/ml), 10 mg in 2% Propylene glycol in olive oil (or cottonseed oil)): > 1 mg/mL
solubility (10% EtOH (95%) in olive oil (or cottonseed oil), 10 mg in 10% EtOH (95%) in olive oil (or cottonseed oil), read-out: 0.01 ml Very soluble (1 g/ml)): < 1000 mg/mL
solubility (10% EtOH (95%) in olive oil (or cottonseed oil), 10 mg in 10% EtOH (95%) in olive oil (or cottonseed oil), read-out: 0.5 ml Soluble (0.02 g/ml; 20 mg/ml)): < 20 mg/mL
solubility (10% EtOH (95%) in olive oil (or cottonseed oil), 10 mg in 10% EtOH (95%) in olive oil (or cottonseed oil), read-out: 1 ml Sparingly soluble (0.01 g/ml; 10 mg/ml)): > 10 mg/mL
solubility (10% EtOH (95%) in olive oil (or cottonseed oil), 0.1 ml Freely soluble (0.1 g/ml), 10 mg in 10% EtOH (95%) in olive oil (or cottonseed oil)): < 100 mg/mL
solubility (10% EtOH (95%) in olive oil (or cottonseed oil), 10 ml Slightly soluble (0.001 g/ml; 1 mg/ml), 10 mg in 10% EtOH (95%) in olive oil (or cottonseed oil)): > 1 mg/mL
solubility (Acetate saline 100 mM, Mannitol 250 mM, pH 4.3, 10 mg in Acetate saline 100 mM, Mannitol 250 mM (pH 4.3), read-out: 0.01 ml Very soluble (1 g/ml)): < 1000 mg/mL
solubility (Acetate saline 100 mM, Mannitol 250 mM, pH 4.3, 10 mg in Acetate saline 100 mM, Mannitol 250 mM (pH 4.3), read-out: 0.5 ml Soluble (0.02 g/ml; 20 mg/ml)): < 20 mg/mL
solubility (Acetate saline 100 mM, Mannitol 250 mM, pH 4.3, 10 mg in Acetate saline 100 mM, Mannitol 250 mM (pH 4.3), read-out: 1 ml Sparingly soluble (0.01 g/ml; 10 mg/ml)): < 10 mg/mL
solubility (Acetate saline 100 mM, Mannitol 250 mM, pH 4.3, 0.1 ml Freely soluble (0.1 g/ml), 10 mg in Acetate saline 100 mM, Mannitol 250 mM (pH 4.3)): < 100 mg/mL
solubility (Acetate saline 100 mM, Mannitol 250 mM, pH 4.3, 10 ml Slightly soluble (0.001 g/ml; 1 mg/ml), 10 mg in Acetate saline 100 mM, Mannitol 250 mM (pH 4.3)): > 1 mg/mL
solubility (Acetate saline 100 mM, Mannitol 250 mM, pH 4.3, Acetate saline 100 mM, Mannitol 250 mM (pH 4.3), read-out: Results USP Definition: solubility): 2 to 3 mg/mL
solubility (Acetic acid 1% (glacial), 10 mg in Acetic acid 1% (glacial), read-out: 0.01 ml Very soluble (1 g/ml)): < 1000 mg/mL
solubility (Acetic acid 1% (glacial), 10 mg in Acetic acid 1% (glacial), read-out: 0.5 ml Soluble (0.02 g/ml; 20 mg/ml)): > 20 mg/mL
solubility (Acetic acid 1% (glacial), 10 mg in Acetic acid 1% (glacial), read-out: 1 ml Sparingly soluble (0.01 g/ml; 10 mg/ml)): > 10 mg/mL
solubility (Acetic acid 1% (glacial), 0.1 ml Freely soluble (0.1 g/ml), 10 mg in Acetic acid 1% (glacial)): > 100 mg/mL
solubility (Acetic acid 1% (glacial), 10 ml Slightly soluble (0.001 g/ml; 1 mg/ml), 10 mg in Acetic acid 1% (glacial)): > 1 mg/mL
solubility (Acetone (USP), 10 mg in Acetone (USP), read-out: 0.01 ml Very soluble (1 g/ml)): < 1000 mg/mL
solubility (Acetone (USP), 10 mg in Acetone (USP), read-out: 0.5 ml Soluble (0.02 g/ml; 20 mg/ml)): > 20 mg/mL
solubility (Acetone (USP), 10 mg in Acetone (USP), read-out: 1 ml Sparingly soluble (0.01 g/ml; 10 mg/ml)): > 10 mg/mL
SMILES: C[C@@H](O)[C@@H]1NC(=O)[C@H](CCCCN)NC(=O)[C@@H](Cc2c[nH]c3ccccc23)NC(=O)[C@H](Cc2c[nH]c3ccccc23)NC(=O)[C@H](Cc2ccccc2)NC(=O)CCCNC(=O)CCCN(CC(N)=O)C(=O)[C@H](Cc2ccccc2)NC1=O [Veldoreotide Acetate, Cyclo(-γ-aminobutyryl-L-phenylalanyl-L-tryptophanyl-D-tryptophanyl-L-lysyl-L-threonyl-L-phenylalanyl-N-carbamoylmethyl-γ-aminobutyryl), acetate salt]
